“Also recorded” adds a separate entry of the source.
Columns and labels:
[1] = test system: Histone H3 phosphorylation at Thr3; test: Histone H3 Thr3 phosphorylation in arrested mitotic cells, immunoblotting; assay type: cell-based; conditions: paclitaxel- or nocodazole-arrested mitotic cells, 30 min, with MG132
Method: Cell lysates were prepared for immunoblotting. […] HeLa cells were treated with DMSO or THZ-4-63-1 (5 μM) for 4 h followed by 1 h treatment of MG132 (10 μM). Cells were fixed and stained with anti-H3T3ph and anti-CREST. […] Cells were treated as in FIG. 2, Panel D, and additionally treated with MG132 (10 μM) for 1 h before fixation. The histogram indicates the quantification of H3S10ph signal. […] MCF-10A cells stably expressing empty vector (EV) or MELK were fixed for immunostaining. Images were captured with identical exposure time. H3T3ph intensity was quantified by the use of ImageJ. […] Recombinant MELK protein (kinase domain) was incubated with recombinant Histone H3 for 30 min at 30° C. Samples were subjected to immunoblotting using the indicated antibodies. […] Cells stably expressing GFP-MELK were fixed by formaldehyde and stained with anti-H3S10ph. […] Asynchronized (Async.) or nocodazole-arrested mitotic cells were subjected to fractionation, with sample prepared for immunoblotting. Panels H and I are images showing that MELK inhibition impairs the localization of chromosome passenger complex (CPC), indicated by the immunofluorescence detecting Survivin (G) and Aurora B (H). In addition to the presence of doxycyclin or THZ-4-63-1, cells were treated with nocodazole (0.33 μM) and MG132 (10 μM) for 3 h before fixation.
Cell lysates were prepared for immunoblotting. […]

MELK = MELK (Homo sapiens, UniProt Q14680); test: Electrophoretic mobility (auto-phosphorylation) of MELK in nocodazole-arrested mitotic cells, immunoblotting; assay type: cell-based; conditions: nocodazole-arrested mitotic cells (HeLa, MDA-MB-231), 30 min, increasing concentration
Chain of MELK (Q14680 whole entry): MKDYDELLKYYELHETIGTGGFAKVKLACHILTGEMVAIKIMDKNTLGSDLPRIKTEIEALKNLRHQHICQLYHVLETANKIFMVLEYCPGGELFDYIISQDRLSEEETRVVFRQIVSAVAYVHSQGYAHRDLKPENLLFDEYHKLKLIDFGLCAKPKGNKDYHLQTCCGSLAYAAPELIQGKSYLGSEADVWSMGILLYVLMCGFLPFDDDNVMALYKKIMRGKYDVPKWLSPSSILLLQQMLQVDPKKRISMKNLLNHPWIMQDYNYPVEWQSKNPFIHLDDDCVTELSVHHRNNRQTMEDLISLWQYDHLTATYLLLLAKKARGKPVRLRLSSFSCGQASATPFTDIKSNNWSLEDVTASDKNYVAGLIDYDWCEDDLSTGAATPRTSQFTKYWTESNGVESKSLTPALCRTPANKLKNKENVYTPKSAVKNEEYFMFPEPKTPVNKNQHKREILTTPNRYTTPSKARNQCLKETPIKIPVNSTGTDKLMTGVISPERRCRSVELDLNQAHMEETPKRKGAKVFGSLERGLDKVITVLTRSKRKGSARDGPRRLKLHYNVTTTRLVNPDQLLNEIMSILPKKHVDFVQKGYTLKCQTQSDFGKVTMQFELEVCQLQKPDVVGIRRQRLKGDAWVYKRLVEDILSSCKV
Method: (§1) […] assays were performed with recombinant protein of the indicated mitotic kinase (left) and AMPK family kinases (right) in the presence of THZ-4-63-1. […] Cells were treated with nocodazole (100 ng/ml) for 18 h or not treated (Asyn., asynchronous). Nocodazole-arrested mitotic cells (M) were isolated via shake-off. The attached cells enriched in G2 phase (G2) were harvested. A portion of the mitotic cells were washed off nocodazole and released into G1 phase after 4 hours of incubation (G1). […] In Panel D, mitotic lysates were prepared from the indicated cells, and treated with λ-phosphatase at 30° C. In Panel E, nocodazole-arrested mitotic cells were treated with increasing concentration of THZ-4-63-1 for 30 min. Cell lysates were subjected to immunoblotting.
(§2) Cell lysates were subjected to immunoblotting. […] The fluorescent signals of immunblotting were quantified using Image Studio Lite software (Licor Biosciences, Lincoln, Neb.). The signal of phosphorylated Aurora kinases was normalized to that of loading control (α-tubulin).
(§3) We next proceeded to test if THZ-4-63-1 inhibits MELK activity in vivo. With a lack of established kinase substrates of MELK during mitosis, we used the auto-phosphorylation of MELK as a surrogate to indicate the activity of MELK. […] We then harvested nocodazole-arrested mitotic cells, and treated cells with increasing concentrations of THZ-4-63-1.

Aurora kinases = test: Aurora kinase phosphorylation in mitotic cells, immunoblotting; assay type: cell-based; conditions: 30 min
Method: as §2
Cell lysates were prepared for immunoblotting. In Panels B and C, THZ-4-63-1 inhibits H3T3 phosphorylation in HeLa (B) and U2OS (C) cells. Nocodazole arrested mitotic cells were treated with THZ-4-63-1 at the indicated doses for 30 min. […] Cell lysates were subjected to immunblotting. The signal of H3T3 phosphorylation was normalized to that of α-tubulin (right).
as §3
We exposed paclitaxel- or nocodazole-arrested mitotic cells to the individual inhibitor for 30 min in the presence of MG132, and collected lysates for examining signaling involved in chromosome alignment. […] Recent studies unravel a novel role of Aurora B in phosphorylating Haspin^7, a major factor responsible for phosphorylating Histone H3 at Thr3^14. […]

mitotic cells = test: Mitotic cell death, time-lapse imaging; assay type: cell-based
Method: U2OS-GFP-H2B cells were treated with vehicle control (0.02% DMSO, v/v) or 1 μM THZ-4-63-1, and subjected to live imaging. Time is given in hours:minutes, relative to the initial time of drug treatment. The arrow points to chromosomes that haven't incorporated into the metaphase plate. […] MDA-MB-468 cells expressing tet-on-shMELK and GFPH2B cells were treated with doxycycline for three days, before subjected to live imaging. Panel D contains images of immunoblotting of lysates from cells treated as in Panel C. Panel E contains images showing mitotic cell death in a cell treated with THZ-4-63-1. The table indicates the quantification of cell death events. Panel F contains images showing that treatment with THZ-4-63-1 impairs chromosome alignment. Cells were treated with DMSO control, or THZ-4-63-1 (5 μM) for 4 hours, followed by MG132 (10 μM) for 1 h. Cells were fixed and stained with anti-CREST, anti-α-tubulin, and DAPI to visualize chromosomes and kinetochores. The histogram indicates the quantifications of cells in metaphase with misaligned chromosomes.
Perturbation of normal mitotic kinetic can lead to various cellular outcomes including cell death.

Aurora A = biological target: T1, Aurora A (Homo sapiens, UniProt O14965); test: Recombinant mitotic kinase assay, Aurora A; assay type: biochemical; conditions: recombinant kinases
T1 sequence (O14965 1-403): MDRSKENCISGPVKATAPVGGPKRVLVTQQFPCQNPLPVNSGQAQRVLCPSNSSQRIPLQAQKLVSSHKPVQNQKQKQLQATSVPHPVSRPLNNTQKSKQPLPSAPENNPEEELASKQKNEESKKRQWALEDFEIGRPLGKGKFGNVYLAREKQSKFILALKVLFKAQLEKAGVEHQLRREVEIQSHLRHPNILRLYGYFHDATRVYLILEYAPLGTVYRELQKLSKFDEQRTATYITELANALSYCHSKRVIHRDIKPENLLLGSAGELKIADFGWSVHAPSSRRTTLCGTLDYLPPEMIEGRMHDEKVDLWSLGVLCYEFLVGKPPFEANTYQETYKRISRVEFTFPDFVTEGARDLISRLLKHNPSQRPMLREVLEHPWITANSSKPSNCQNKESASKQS
Method: as §1
To discover a selective MELK inhibitor, a few molecule scaffolds with the potential of binding to MELK were identified, including 2,4-disubstituted pyrimidines and benzonaphthyridinones. […] To investigate if THZ-4-63-1 confers selective inhibition on MELK, we tested its effect on other mitotic kinases. In assays using recombinant kinases, MELK kinase activity was 20-fold more sensitive to THZ-4-63-1, than that of Aurora A, Aurora B, CDK1, or PLK1 (FIG. 1B).

Compound: CN(C)Cc1ccc(-n2c(=O)ccc3cnc4ccc(-c5cc(Cl)c(O)c(Cl)c5)cc4c32)cc1 [THZ-4-63-1]
- Histone H3 phosphorylation at Thr3 [1]: strong suppression
- Electrophoretic mobility of mitotic MELK (MELK): increases the electrophoretic mobility of mitotic MELK; also recorded: readily altered the mobility shift in a dose-dependent manner
- Phosphorylation of Aurora kinases (Aurora kinases): lack of obvious inhibition; also recorded: did not inhibit
- Mitotic cell death (mitotic cells): efficiently induced mitotic cell death
- MELK kinase activity more sensitive than that of Aurora A (Aurora A): 20 fold
